According to PubChem BioAssay (NCI):
Several values for one entry are separate records, joined by “and”; a condition that tells them apart may be missing. Identical values can stand only once.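 Each compound was tested at five concentrations against cells in 96-well plates for 48 hours. GI50 marks 50% less growth. The concentration for full growth arrest is given as TGI.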

Columns and labels:
Test in all cases: inhibition of tumour cell growth, NCI panel, 48 h
[1] = tested on: SK-MEL-28 melanoma
[2] = tested on: RPMI-8226 leukemia
[3] = tested on: A498 renal
[4] = tested on: ACHN renal
[5] = tested on: KM12 colon
[6] = tested on: A549 NSCLC
[7] = tested on: HS 578T breast
[8] = tested on: HOP-62 NSCLC
[9] = tested on: TK-10 renal
[10] = tested on: T-47D breast

Row | Compound | GI50 [1] [µM] | TGI [1] | GI50 [2] [µM] | TGI [2] | GI50 [3] [µM] | TGI [3] | GI50 [4] [µM] | TGI [4] [µM] | GI50 [5] [µM] | TGI [5] | GI50 [6] [µM] | TGI [6] | GI50 [7] [µM] | TGI [7] [µM] | GI50 [8] [µM] | TGI [8] | TGI [9] [µM] | GI50 [10] [µM] | TGI [10] [µM]
1 | c1ccc(-c2c(-c3ccccc3)[n+](Cc3ccc4ccccc4c3)c(-c3ccc(-c4nc5ccccc5s4)cc3)n2Cc2ccc3ccccc3c2)cc1 | 0.368 | 1.57 µM | 0.0625 | 0.426 µM | 0.156 | 0.542 µM | 0.178 | 0.378 | 0.13 | 0.336 µM | 0.176 | 1.55 µM | 0.296 | 1.41 | – | – | – | – | –
2 | Cc1c2ccnc(C(N)=O)c2c(C)c2c1[nH]c1ccccc12 | 5.31 | 19.4 µM and 20.1 µM | 3.58 | 34.5 µM and 16.4 µM | 3.09 | 26.7 µM and 12.4 µM | – | 13.8 | 0.651 | 47.2 µM and 56.1 µM | 3.28 | 37.1 µM and 15.8 µM | – | – | 4.03 | 26.8 µM and 16.9 µM | 22.5 | – | –
3 | CC(=O)O[C@@H](c1nccn1Cc1ccccc1)[C@H]1OC(C)(C)O[C@@H]1[C@H]1COC(C)(C)O1 | – | > 100 µM | – | > 100 µM | – | > 100 µM | – | > 100 | – | > 100 µM | – | > 100 µM | – | > 100 | – | > 100 µM | > 100 | – | –
4 | COC(=O)CNC(=O)C(CSC(=O)OCC1c2ccccc2-c2ccccc21)NC(=O)CCC(NC(=O)OCC1c2ccccc2-c2ccccc21)C(=O)OC (stereo not given) | – | > 100 µM | – | 90.1 µM | – | – | – | > 100 | – | – | – | 27.5 µM | – | > 100 | – | 40.2 µM | > 100 | – | –
5 | OCc1cn(Cc2ccccc2)c2ccccc12 | – | > 100 µM | – | 12.1 µM | – | – | – | > 58.2 | – | > 63.8 µM | – | > 100 µM | – | 30.4 | – | > 100 µM | – | – | –
6 | O=[N+]([O-])c1cccc(C2=NN(c3ccccc3)C3c4cc(Br)ccc4OCC23)c1 (stereo not given) | – | > 100 µM | – | > 100 µM | – | > 100 µM | – | > 100 | – | > 100 µM | – | > 100 µM | – | – | – | > 100 µM | > 100 | – | –
7 | COc1cc2nc(-c3ccc(Cl)cc3)cc(OCCCN3CCOCC3)c2cc1OC | – | – | – | – | 1.59 | 4.02 µM | 3.64 | > 100 | 3.87 | > 100 µM | 2.02 | > 100 µM | – | – | – | – | – | 1.96 | > 100
8 | COC(=O)/C=C(\C)CC/C=C(\C)CCC1OC1(C)C (stereo not given) | – | 23.3 µM | – | – | – | 28.6 µM | – | 23.3 | – | 20.8 µM | – | 24.1 µM | – | 35.2 | – | 26.7 µM | 22.7 | – | –
9 | CC(C)C(Br)CCC1=CCC(Br)(Br)C1 (stereo not given) | – | 29 µM | – | – | – | 32.8 µM | – | 30.6 | – | 27.5 µM | – | 33.8 µM | – | 47.4 | – | 30.8 µM | 31.4 | – | –
10 | COc1cc(C)c(CC/C(C)=C/Cc2cc(O)ccc2O)c(C)c1C | – | > 25 µM | – | > 25 µM | – | > 25 µM | – | > 25 | – | > 25 µM | – | > 25 µM | – | – | – | – | > 25 | – | –
11 | CN(C)C(=O)C(F)(F)C(c1ccc(F)cc1)C1C(=O)N(C)C(=O)N(C)C1=O (stereo not given) | – | > 100 µM | – | > 100 µM | – | > 100 µM | – | > 100 | – | > 100 µM | – | > 100 µM | – | – | – | > 100 µM | > 100 | – | > 100
12 | CCc1c(O)cc(=O)oc1-c1ccc(OC)c(OC)c1 | – | > 100 µM | – | – | – | > 100 µM | – | > 100 | – | > 100 µM | – | > 100 µM | – | > 100 | – | > 100 µM | > 100 | – | > 100
13 | Cc1ccccc1-c1nc2c(N)nc(N)nc2nc1N | – | > 100 µM | – | > 100 µM | – | – | – | > 100 | – | > 100 µM | – | > 100 µM | – | > 100 | – | > 100 µM | > 100 | – | –
14 | COC(=O)[C@]1(C)CCC[C@@]2(C)C1CC[C@]13C=C(C(C)C)[C@H](CC21)CC3(Cl)C#N (stereo not given in full) | – | > 100 µM | – | – | – | > 100 µM | – | > 100 | – | > 100 µM | – | > 100 µM | – | > 100 | – | > 100 µM | > 100 | – | 55.8
15 | Cc1c(N2CCOCC2)nc2ccc(Cl)cc2c1-c1ccccc1 | – | > 100 µM | – | > 100 µM | – | > 100 µM | – | > 100 | – | > 100 µM | – | > 100 µM | – | – | – | > 100 µM | > 100 | – | –
16 | C[C@]12CCC3[C@@H](CCC45OC4C(=O)CC[C@]35C)C1Cc1cnn(-c3ccc(F)cc3)c1N2 (stereo not given in full) | – | 85.2 µM | – | 54.7 µM | – | – | – | > 100 | – | 55.1 µM | – | > 100 µM | – | – | – | > 100 µM | > 100 | – | –
17 | CC1=NN(C(=O)Cc2ccccc2)C(=O)/C1=C\c1ccc(O)cc1 | – | > 100 µM | – | > 100 µM | – | > 100 µM | – | > 100 | – | > 100 µM | – | > 100 µM | – | – | – | > 100 µM | > 100 | – | –
